This is an account of results in PMC11247629, “New Lipophilic Hydroxamates as Promising Trypanocidal Agents: Design, Synthesis, SAR, and Conformational Behavior Studies” (ACS Medicinal Chemistry Letters, 2024).

The structures appear in SMILES notation.

The first series has as its system L6 cells (a rat myoblast line). Kind of series: Cytotoxicity against cultured rat skeletal myoblast L6 cells (resazurin). It is filed as cell-based. Conditions: cultured rat skeletal myoblast L6 cells; mean of triplicate ± SEM. How it is done: (§1) To determine cytotoxicity, L6 cells (a rat myoblast line) were seeded at 1x104 mL−1 into 96-well microtiter plates (200 μL of growth medium), at a range of compound concentrations. After 6 days incubation at 37°C, 20 μL resazurin (0.125 mg mL−1) was added to each well. The plates were incubated for 6 hours, and fluorescence determined by plate reader, as above. […]
Consider `Cl.O=C(CNC(=O)CN1C(=O)[C@H](Cc2ccccc2)NC2(C1=O)C1CC3CC(C1)CC2C3)NO` (some centres unmarked) [Compound 20.HCl], for which the IC50 (commonly the point on the concentration scale where inhibition reaches its midpoint) was 25000 nM.
Turning to `CC(C)C[C@@H]1NC2(CCCCCCC2)C(=O)N(CC(=O)NCC(=O)NO)C1=O.Cl` [Compound 25.HCl], it took 249000 nM to reach half-maximal inhibition (IC50).

Staying with this series, now noted: ratio of the IC50 for L6 cells and T. brucei.
As for `CC(C)C[C@@H]1NC2(C(=O)N(CC(=O)N(C)CC(=O)NO)C1=O)C1CC3CC(C1)CC2C3` (some centres unmarked) [Compound 22], the “Selectivity indices (SIs)” value was 940.
Take `CC(C)C[C@@H]1NC2(C(=O)N(CC(=O)NCC(=O)NO)C1=O)C1CC3CC(C1)CC2C3` (some centres unmarked) [Compound 19]: the “Selectivity indices (SIs)” value came out at 90.
On the same count and under the same terms, then `O=C(CNC(=O)CN1C(=O)[C@H](Cc2ccccc2)NC2(C1=O)C1CC3CC(C1)CC2C3)NO` (some centres unmarked) [Compound 20], with 24.
For the molecule `CC(C)C[C@@H]1NC2(CCCCCCC2)C(=O)N(CC(=O)NCC(=O)NO)C1=O` [Compound 25], the “Selectivity indices (SIs)” value stood at 185.
In the case of `CN(CC(=O)NO)C(=O)CN1C(=O)[C@H](Cc2ccccc2)NC2(C1=O)C1CC3CC(C1)CC2C3` (some centres unmarked) [Compound 23], the “Selectivity indices (SIs)” value stood at 470.
Same read-out and setting: then `Cl.O=C(CNC(=O)CN1C(=O)[C@H](Cc2ccccc2)NC2(C1=O)C1CC3CC(C1)CC2C3)NO` (some centres unmarked) [Compound 20.HCl], with 16.
The same measure, in the same setting: then `CC(C)C[C@@H]1NC2(CCCCCCC2)C(=O)N(CC(=O)NCC(=O)NO)C1=O.Cl` [Compound 25.HCl], with 295; and `CC(C)C[C@@H]1NC2(CCCCCC2)C(=O)N(CC(=O)NCC(=O)NO)C1=O` [Compound 28], with 235.
On to `CN(CC(=O)NO)C(=O)CN1C(=O)CNC2(C1=O)C1CC3CC(C1)CC2C3` (centres unmarked) [Compound 21], for which the “Selectivity indices (SIs)” value is reported as 285.

System in a further series: not listed separately
The description is as above. The class given is cell-based. The settings on record: rat, L6 rat skeletal myoblast cells, cultured rat skeletal myoblast L6 cells; mean of triplicate ± SEM. The protocol: as §1
`CC(C)C[C@@H]1NC2(C(=O)N(CC(=O)N(C)CC(=O)NO)C1=O)C1CC3CC(C1)CC2C3` (some centres unmarked) [Compound 22] showed an IC50 at 6 days of 32000 ± 3000 nM.
The molecule `CC(C)C[C@@H]1NC2(C(=O)N(CC(=O)NCC(=O)NO)C1=O)C1CC3CC(C1)CC2C3` (some centres unmarked) [Compound 19] returned an IC50 at 6 days of 35000 ± 4000 nM.
Same read-out and setting: with `O=C(CNC(=O)CN1C(=O)[C@H](Cc2ccccc2)NC2(C1=O)C1CC3CC(C1)CC2C3)NO` (some centres unmarked) [Compound 20] the figure was 29000 ± 2000 nM; with `CC(C)C[C@@H]1NC2(CCCCCCC2)C(=O)N(CC(=O)NCC(=O)NO)C1=O` [Compound 25], 223000 ± 28000 nM; with `CN(CC(=O)NO)C(=O)CN1C(=O)[C@H](Cc2ccccc2)NC2(C1=O)C1CC3CC(C1)CC2C3` (some centres unmarked) [Compound 23], 25000 ± 2000 nM.
In turn, `CC(C)C[C@@H]1NC2(CCCCCC2)C(=O)N(CC(=O)NCC(=O)NO)C1=O` [Compound 28] had an IC50 at 6 days of 390000 ± 6000 nM.
Same read-out and setting: with `CN(CC(=O)NO)C(=O)CN1C(=O)CNC2(C1=O)C1CC3CC(C1)CC2C3` (centres unmarked) [Compound 21] the figure was 376000 ± 7000 nM.

The next series has as its system T. brucei.
Test: not given
Conditions: spiro carbocyclic 2,6-DKP-1-acetohydroxamic acids 1-5 reported previously; cited from earlier work.
On to `C[C@@H]1NC2(CCCCCCC2)C(=O)N(CC(=O)NO)C1=O` [Compound 4c], for which the IC50 was 125 nM.
On to `O=C(CN1C(=O)C(Cc2ccccc2)NC2(C1=O)C1CC3CC(C1)CC2C3)NO` (centres unmarked) [Compound 2], for which the IC50 was 17 nM.
On to `CSCC[C@@H]1NC2(C(=O)N(CC(=O)NO)C1=O)C1CC3CC(C1)CC2C3` (some centres unmarked) [Compound 1e], for which the IC50 was 168 nM.
Take `O=C(CN1C(=O)CNC2(CCCCCC2)C1=O)NO` [Compound 5a]: the IC50 was 1870 nM.
As to `O=C(CN1C(=O)C(Cc2ccc(Cl)cc2)NC2(C1=O)C1CC3CC(C1)CC2C3)NO` (centres unmarked) [Compound 3], the IC50 was 32 nM.

The subject of a further series is bloodstream form T. b. brucei (strain 221). Nature of the series: Growth inhibition of cultured bloodstream-form T. brucei (resazurin). The settings on record: T. brucei IC50. The class given is cell-based, Trypanosoma brucei. How it is done:
The new hydroxamic acid derivatives 18–28 were tested against bloodstream-form T. brucei in vitro. The results are presented in Table 1, and are expressed as IC50 and IC90 values. […]
Reference: minimized structure, heterocycle and adamantane cage).
IV. Experimental procedures for the biological evaluation of the compounds
Growth inhibition analysis was carried out using bloodstream form T. b. brucei (strain 221) cultured at
37 °C, as previously described.8 Briefly, experiments were performed using 96-well microtiter plates (200
μL volumes), with each assay initiated with 2.5 x10^4 parasites mL−1, and test compounds then added at 7
concentrations in a range that had been established in preliminary experiments to encompass both EC50
and EC90 values. Plates were incubated for 48 hours, resazurin (20 μL at 0.125 mg mL−1) was then added,
and the plates re-incubated for 16 hours. Fluorescence was determined using a BMG FLUOstar Omega plate
reader (excitation 545 nm, emission 590 nm), and the data analysed using GraphPad Prism 9.0 software.
The data are expressed as IC50/IC90 ± SD, and are the average of 3 independent replicates. […]
For `CC(C)C[C@@H]1NC2(C(=O)N(CC(=O)N(C)CC(=O)NO)C1=O)C1CC3CC(C1)CC2C3` (some centres unmarked) [Compound 22], the “times more potent than 18” value is on record as 735 fold.
On the same count and under the same terms, then `CN(CC(=O)NO)C(=O)CN1C(=O)[C@H](Cc2ccccc2)NC2(C1=O)C1CC3CC(C1)CC2C3` (some centres unmarked) [Compound 23], with 472 fold.

The same series, now with this note: T. brucei IC50; 19 and 20 vs 18, 25 vs 24, 28 vs 27.
On to `CC(C)C[C@@H]1NC2(C(=O)N(CC(=O)NCC(=O)NO)C1=O)C1CC3CC(C1)CC2C3` (some centres unmarked) [Compound 19], for which the “times more potent than the unsubstituted parent” value is recorded as 62 fold.
Take `O=C(CNC(=O)CN1C(=O)[C@H](Cc2ccccc2)NC2(C1=O)C1CC3CC(C1)CC2C3)NO` (some centres unmarked) [Compound 20]: the “times more potent than the unsubstituted parent” value was found to be 20 fold.
For the molecule `CC(C)C[C@@H]1NC2(CCCCCCC2)C(=O)N(CC(=O)NCC(=O)NO)C1=O` [Compound 25], the “times more potent than the unsubstituted parent” value was more than 252 fold.
Still for that read-out and setting: then `CC(C)C[C@@H]1NC2(CCCCCC2)C(=O)N(CC(=O)NCC(=O)NO)C1=O` [Compound 28], with more than 18 fold.

The same series, now with this note: T. brucei IC50; 21 vs 18, 22 vs 19, 23 vs 20, 26 vs 24.
As for `CC(C)C[C@@H]1NC2(C(=O)N(CC(=O)N(C)CC(=O)NO)C1=O)C1CC3CC(C1)CC2C3` (some centres unmarked) [Compound 22], the “times more potent than the nonmethylated counterpart” value worked out at 12 fold.
The same measure, in the same setting: with `CN(CC(=O)NO)C(=O)CN1C(=O)[C@H](Cc2ccccc2)NC2(C1=O)C1CC3CC(C1)CC2C3` (some centres unmarked) [Compound 23] the figure was 23 fold.
For `CN(CC(=O)NO)C(=O)CN1C(=O)CNC2(C1=O)C1CC3CC(C1)CC2C3` (centres unmarked) [Compound 21], the “times more potent than the nonmethylated counterpart” value came to 19 fold.

Still in this series, the particulars now being: Trypanosoma brucei, cultured bloodstream-form Trypanosoma brucei, pH = 7.4; concentration inhibiting growth by 50%; mean of triplicate ± SEM.
In turn, `CC(C)C[C@@H]1NC2(C(=O)N(CC(=O)N(C)CC(=O)NO)C1=O)C1CC3CC(C1)CC2C3` (some centres unmarked) [Compound 22] came in with an IC50 of 34 ± 2 nM.
The same measure, in the same setting: then `CC(C)C[C@@H]1NC2(C(=O)N(CC(=O)NCC(=O)NO)C1=O)C1CC3CC(C1)CC2C3` (some centres unmarked) [Compound 19], with 400 ± 90 nM; and `O=C(CNC(=O)CN1C(=O)[C@H](Cc2ccccc2)NC2(C1=O)C1CC3CC(C1)CC2C3)NO` (some centres unmarked) [Compound 20], with 1230 ± 200 nM.
`CC(C)C[C@@H]1NC2(CCCCCCC2)C(=O)N(CC(=O)NCC(=O)NO)C1=O` [Compound 25] showed an IC50 of 1190 ± 280 nM.
In the case of `CN(CC(=O)NO)C(=O)CN1C(=O)[C@H](Cc2ccccc2)NC2(C1=O)C1CC3CC(C1)CC2C3` (some centres unmarked) [Compound 23], the IC50 was determined as 53 ± 11 nM.
The same measure, in the same setting: with `CC(C)C[C@@H]1NC2(CCCCCC2)C(=O)N(CC(=O)NCC(=O)NO)C1=O` [Compound 28] the figure was 1650 ± 130 nM; with `CN(CC(=O)NO)C(=O)CN1C(=O)CNC2(C1=O)C1CC3CC(C1)CC2C3` (centres unmarked) [Compound 21], 1330 ± 110 nM.

The same series, now with this note: Trypanosoma brucei, cultured bloodstream-form Trypanosoma brucei, pH = 7.4; concentration inhibiting growth by 90%; mean of triplicate ± SEM.
Consider `CC(C)C[C@@H]1NC2(C(=O)N(CC(=O)N(C)CC(=O)NO)C1=O)C1CC3CC(C1)CC2C3` (some centres unmarked) [Compound 22], for which the IC90 (commonly the point of the concentration-response curve where the effect stands at 90%) came out at 57 ± 5 nM.
In turn, `CC(C)C[C@@H]1NC2(C(=O)N(CC(=O)NCC(=O)NO)C1=O)C1CC3CC(C1)CC2C3` (some centres unmarked) [Compound 19] gave an IC90 of 980 ± 50 nM.
Regarding `O=C(CNC(=O)CN1C(=O)[C@H](Cc2ccccc2)NC2(C1=O)C1CC3CC(C1)CC2C3)NO` (some centres unmarked) [Compound 20], the IC90 was found to be 4880 ± 740 nM.
Still for that read-out and setting: then `CC(C)C[C@@H]1NC2(CCCCCCC2)C(=O)N(CC(=O)NCC(=O)NO)C1=O` [Compound 25], with 1900 ± 100 nM; and `CN(CC(=O)NO)C(=O)CN1C(=O)[C@H](Cc2ccccc2)NC2(C1=O)C1CC3CC(C1)CC2C3` (some centres unmarked) [Compound 23], with 81 ± 3 nM.
The same measure, in the same setting: with `CC(C)C[C@@H]1NC2(CCCCCC2)C(=O)N(CC(=O)NCC(=O)NO)C1=O` [Compound 28] the figure was 3330 ± 130 nM; with `CN(CC(=O)NO)C(=O)CN1C(=O)CNC2(C1=O)C1CC3CC(C1)CC2C3` (centres unmarked) [Compound 21], 3420 ± 850 nM.

Still in this series, the particulars now being: cultured bloodstream-form Trypanosoma brucei, pH = 7.4; concentration inhibiting growth by 50%; mean of triplicate ± SEM.
In the case of `Cl.O=C(CNC(=O)CN1C(=O)[C@H](Cc2ccccc2)NC2(C1=O)C1CC3CC(C1)CC2C3)NO` (some centres unmarked) [Compound 20.HCl], the IC50 was 1530 nM.
`CC(C)C[C@@H]1NC2(CCCCCCC2)C(=O)N(CC(=O)NCC(=O)NO)C1=O.Cl` [Compound 25.HCl] had an IC50 of 850 nM.

The same series, now with this note: cultured bloodstream-form Trypanosoma brucei, pH = 7.4; concentration inhibiting growth by 90%; mean of triplicate ± SEM.
For the molecule `Cl.O=C(CNC(=O)CN1C(=O)[C@H](Cc2ccccc2)NC2(C1=O)C1CC3CC(C1)CC2C3)NO` (some centres unmarked) [Compound 20.HCl], the concentration for an effect of 90% (IC90) was 4260 nM.
`CC(C)C[C@@H]1NC2(CCCCCCC2)C(=O)N(CC(=O)NCC(=O)NO)C1=O.Cl` [Compound 25.HCl]: the IC90 was 1710 nM.
